According to US20050245399A1, “Pyrazole derivatives as herbicidal compositions containing them” (ISHIHARA SANGYO KAISHA, LTD., priority 2004, published 2005):

Tests used:
Type in all cases: in vivo
[1] = test system: redroot pigweed (Amaranthus retroflexus L.): AMARE; experiment: Test Example 1 pre-emergence herbicidal activity, AMARE; conditions: Rate 63 g a.i./ha, visually observed 20th to 23rd day after application
In short: (§1)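 Percent growth control, rated visually 20–23 d after a pre-emergence spray applied 1 d post-sowing; compound formulated as WP or EC in 500 L/ha water at a predetermined a.i. amount.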

[2] = test system: velvetleaf (Abutilon theophrasti): ABUTH; experiment: Test Example 1 pre-emergence herbicidal activity, ABUTH; conditions: Rate 63 g a.i./ha, visually observed 20th to 23rd day after application
In short: as §1

[3] = test system: common cocklebur (Xanthium strumarium L.): XANST; experiment: Test Example 1 pre-emergence herbicidal activity, XANST; conditions: Rate 63 g a.i./ha, visually observed 20th to 23rd day after application
Source text: Upland field soil was put into a 1/170,000 ha pot, and seeds of various plants {1. barnyardgrass (Echinochloa crus-galli L.): ECHCG, 2. crabgrass (Digitaria sanguinalis L.): DIGSA, 3. green foxtail (Setaria viridis L.): SETVI, 4. redroot pigweed (Amaranthus retroflexus L.): AMARE, 5. prickly sida (Sida spinosa L.): SEDSP, 6. velvetleaf (Abutilon theophrasti): ABUTH, 7. common cocklebur (Xanthium strumarium L.): XANST, 8. rice (Oryza sativa L.): ORYSA, 9. wheat (Triticum aestivum L.): TRZAX, 10. corn (Zea mays L.): ZEAMX, 11. soybean (Glycine max Merr.): GLXMA} were sown. Then, one day after the sowing, a wettable powder or emulsifiable concentrate having the compound of the present invention formulated in accordance with a usual formulation method, was weighed so that the active ingredient would be a predetermined amount and diluted with water in an amount of 500 L/ha. The herbicide adjusted was applied by a small size sprayer for preemergence treatment. On the 20th to 23rd day after the application of the herbicide, the growth of the respective plants was visually observed, and the herbicidal effects were evaluated by growth controlling degrees (%) ranging from 0 (equivalent to the untreated control) to 100 (complete kill), whereby the results shown in Table 4, were obtained. Compound Nos. in Table 4 correspond to Compound Nos. in Table 1 and 2 given hereinbefore.

[4] = test system: wheat (Triticum aestivum L.): TRZAX; experiment: Test Example 1 pre-emergence herbicidal activity, TRZAX; conditions: Rate 63 g a.i./ha, visually observed 20th to 23rd day after application
In short: as §1

[5] = test system: corn (Zea mays L.): ZEAMX; experiment: Test Example 1 pre-emergence herbicidal activity, ZEAMX; conditions: Rate 63 g a.i./ha, visually observed 20th to 23rd day after application
In short: as §1

[6] = test system: velvetleaf (Abutilon theophrasti), ABUTH; experiment: Test Example 2 post-emergence (foliage treatment) herbicidal activity, ABUTH; conditions: 63 g a.i./ha
In short: (§2)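 A small sprayer delivered the diluted WP or EC formulation (500 L/ha water, 0.1% v/v spreader) over emerged seedlings in upland soil pots. Damage relative to untreated plants was graded visually from 0 to 100% three weeks or so later (days 20-23).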

[7] = test system: rice (Oryza sativa L.), ORYSA; experiment: Test Example 2 post-emergence (foliage treatment) herbicidal activity, ORYSA; conditions: 63 g a.i./ha
In short: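 Each species was evaluated for growth suppression by eye, 0% matching untreated and 100% meaning death, some 20 to 23 days after a single post-emergence foliar treatment applied in 500 L/ha of water carrying 0.1% (v/v) agricultural spreader.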

[8] = test system: soybean (Glycine max Merr.), GLXMA; experiment: Test Example 2 post-emergence (foliage treatment) herbicidal activity, GLXMA; conditions: 63 g a.i./ha
In short: as §2

[9] = test system: barnyardgrass (Echinochiloa oryzicola: ECHOR); experiment: Test Example 3 water application herbicidal activity (paddy), ECHOR; conditions: 63 g a.i./ha, water application under submerged condition at 0.5 leaf stage, visually observed 14th day after application; 0 = untreated control, 100 = complete kill
In short: (§3)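 Submerged application in flooded paddy soil (3–4 cm water); weeds treated at 0.5-leaf stage, transplanted rice 4 d after transplanting. Scored visually as % growth control: weeds at 14 d, rice at 21 d.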

[10] = test system: japanese bulrush (Scirpus juncoides: SCPJO); experiment: Test Example 3 water application herbicidal activity (paddy), SCPJO; conditions: 63 g a.i./ha, water application under submerged condition at 0.5 leaf stage, visually observed 14th day after application; 0 = untreated control, 100 = complete kill
In short: as §3

[11] = test system: rice (Oryza sativa L.: ORYSA); experiment: Test Example 3 water application herbicidal activity (paddy), transplanted rice ORYSA; conditions: 63 g a.i./ha, water application 4th day after transplantation of 2 leaf stage rice, visually observed 21st day after application; 0 = untreated control, 100 = complete kill
In short: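 Rice at 2-leaf stage is transplanted into flooded puddled soil and treated by water application 4 days later, at a predetermined active-ingredient dose. Crop injury is rated visually as growth control (0–100%) 21 days after treatment.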

## COc1c(Cl)cc(F)c(-c2nn(C)c(OC(F)F)c2Cl)c1N(C=O)CC(=O)c1ccccc1 [Compound 1-12]
[1]
  Pre-emergence Herbicidal Activity AMARE (growth controlling degree): 100%
[2]
  Pre-emergence Herbicidal Activity ABUTH (growth controlling degree): 100%
[3]
  Pre-emergence Herbicidal Activity XANST (growth controlling degree): 50%
[4]
  Pre-emergence Herbicidal Activity TRZAX (growth controlling degree): 20%
[5]
  Pre-emergence Herbicidal Activity ZEAMX (growth controlling degree): 10%
[6]
  growth controlling degree, ABUTH: 100%
[7]
  growth controlling degree, ORYSA: 40%
[8]
  growth controlling degree, GLXMA: 40%
[9]
  growth controlling degrees (%) ECHOR: 95%
[10]
  growth controlling degrees (%) SCPJO: 50%
[11]
  growth controlling degrees (%) ORYSA: 35%
